Assay results taken from publication PMC5290327, “SC83288 is a clinical development candidate for the treatment of severe malaria” (Nature Communications, 2017).

Columns and labels:
Experiment in all cases: KINOMEscan
Type in all cases: binding
Details in all cases: read-out: Remaining enzyme activity
[1] = biological target: T1, ABL1(M351T) (Homo sapiens, UniProt P00519, M351T)
T1 construct: purchased Ambit (DiscoverX) KINOMEscan; Cerep
Method in brief: (§1)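 Each kinase, tagged with DNA, is partitioned between test compound and an immobilized active-site ligand; qPCR of the eluate reports the bound fraction. SC81458 dosed once, 10 μM final concentration.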

[2] = biological target: T2, ABL2 (Homo sapiens, UniProt P42684)
T2 construct: purchased Ambit (DiscoverX) KINOMEscan; Cerep
Method in brief: as §1

[3] = biological target: T3, ARK5 (Homo sapiens, UniProt O60285)
T3 construct: purchased Ambit (DiscoverX) KINOMEscan; Cerep
Method in brief: as §1

[4] = biological target: T4, ASK1 (Homo sapiens, UniProt Q99683)
T4 construct: purchased Ambit (DiscoverX) KINOMEscan; Cerep
Method in brief: as §1

[5] = biological target: T5, AURKC (Homo sapiens, UniProt Q9UQB9)
T5 construct: purchased Ambit (DiscoverX) KINOMEscan; Cerep
Method in brief: as §1

[6] = biological target: T6, CDK3 (Homo sapiens, UniProt Q00526)
T6 construct: purchased Ambit (DiscoverX) KINOMEscan; Cerep
Method in brief: as §1

[7] = biological target: T7, CDK9 (Homo sapiens, UniProt P50750)
T7 construct: purchased Ambit (DiscoverX) KINOMEscan; Cerep
Method in brief: as §1

[8] = biological target: T8, CDKL5 (Homo sapiens, UniProt O76039)
T8 construct: purchased Ambit (DiscoverX) KINOMEscan; Cerep
Method in brief: as §1

[9] = biological target: T9, CSNK1d (Homo sapiens, UniProt P48730)
T9 construct: purchased Ambit (DiscoverX) KINOMEscan; Cerep
Method in brief: as §1

[10] = biological target: T10, CSNK1e (Homo sapiens, UniProt P49674)
T10 construct: purchased Ambit (DiscoverX) KINOMEscan; Cerep
Method in brief: as §1

[11] = biological target: T11, DDR2 (Homo sapiens, UniProt Q16832)
T11 construct: purchased Ambit (DiscoverX) KINOMEscan; Cerep
Method in brief: as §1

[12] = biological target: T12, EPHA1 (Homo sapiens, UniProt P21709)
T12 construct: purchased Ambit (DiscoverX) KINOMEscan; Cerep
Method in brief: as §1

[13] = biological target: T13, ERK8 (Homo sapiens, UniProt Q8TD08)
T13 construct: purchased Ambit (DiscoverX) KINOMEscan; Cerep
Method in brief: as §1

[14] = biological target: T14, FER (Homo sapiens, UniProt P16591)
T14 construct: purchased Ambit (DiscoverX) KINOMEscan; Cerep
Method in brief: as §1

[15] = biological target: T15, FES (Homo sapiens, UniProt P07332)
T15 construct: purchased Ambit (DiscoverX) KINOMEscan; Cerep
Method in brief: as §1

[16] = biological target: T16, IGF1R (Homo sapiens, UniProt P08069)
T16 construct: purchased Ambit (DiscoverX) KINOMEscan; Cerep
Method in brief: as §1

[17] = biological target: T17, IKK-beta (Homo sapiens, UniProt O14920)
T17 construct: purchased Ambit (DiscoverX) KINOMEscan; Cerep
Method in brief: as §1

[18] = biological target: T18, MAP4K3 (Homo sapiens, UniProt Q8IVH8)
T18 construct: purchased Ambit (DiscoverX) KINOMEscan; Cerep
Method in brief: as §1

[19] = biological target: T19, MAST1 (Homo sapiens, UniProt Q9Y2H9)
T19 construct: purchased Ambit (DiscoverX) KINOMEscan; Cerep
Method in brief: as §1

[20] = biological target: T20, MRCKA (Homo sapiens, UniProt Q5VT25)
T20 construct: purchased Ambit (DiscoverX) KINOMEscan; Cerep
Method in brief: as §1

[21] = biological target: T21, MRCKB (Homo sapiens, UniProt Q9Y5S2)
T21 construct: purchased Ambit (DiscoverX) KINOMEscan; Cerep
Method in brief: as §1

[22] = biological target: T22, MST1R (Homo sapiens, UniProt Q04912)
T22 construct: purchased Ambit (DiscoverX) KINOMEscan; Cerep
Method in brief: as §1

[23] = biological target: T23, MYO3b (Homo sapiens, UniProt Q8WXR4)
T23 construct: purchased Ambit (DiscoverX) KINOMEscan; Cerep
Method in brief: as §1

[24] = biological target: T24, NEK5 (Homo sapiens, UniProt Q6P3R8)
T24 construct: purchased Ambit (DiscoverX) KINOMEscan; Cerep
Method in brief: as §1

[25] = biological target: T25, PIK3CA(E545A) (Homo sapiens, UniProt P42336, E545A)
T25 construct: purchased Ambit (DiscoverX) KINOMEscan; Cerep
Method in brief: as §1

[26] = biological target: T26, PIP5K2b (Homo sapiens, UniProt P78356)
T26 construct: purchased Ambit (DiscoverX) KINOMEscan; Cerep
Method in brief: as §1

[27] = biological target: T27, RAF1 (Homo sapiens, UniProt P04049)
T27 construct: purchased Ambit (DiscoverX) KINOMEscan; Cerep
Method in brief: as §1

[28] = biological target: T28, RET(V804M) (Homo sapiens, UniProt P07949, V804M)
T28 construct: purchased Ambit (DiscoverX) KINOMEscan; Cerep
Method in brief: as §1

[29] = biological target: T29, RIOK1 (Homo sapiens, UniProt Q9BRS2)
T29 construct: purchased Ambit (DiscoverX) KINOMEscan; Cerep
Method in brief: as §1

[30] = biological target: T30, ROCK1 (Homo sapiens, UniProt Q13464)
T30 construct: purchased Ambit (DiscoverX) KINOMEscan; Cerep
Method in brief: as §1

[31] = biological target: T31, RPS6KA6(Kin.Dom.2-C-term) (Homo sapiens, UniProt Q9UK32)
T31 construct: RPS6KA6(Kin.Dom.2-C-term); purchased Ambit (DiscoverX) KINOMEscan; Cerep
Method in brief: as §1

[32] = biological target: T32, STK16 (Homo sapiens, UniProt O75716)
T32 construct: purchased Ambit (DiscoverX) KINOMEscan; Cerep
Method in brief: as §1

[33] = biological target: T33, TNK2 (Homo sapiens, UniProt Q07912)
T33 construct: purchased Ambit (DiscoverX) KINOMEscan; Cerep
Method in brief: as §1

[34] = biological target: T34, TRKc (Homo sapiens, UniProt Q16288)
T34 construct: purchased Ambit (DiscoverX) KINOMEscan; Cerep
Method in brief: as §1

T22 sequence (Q04912 25-1400): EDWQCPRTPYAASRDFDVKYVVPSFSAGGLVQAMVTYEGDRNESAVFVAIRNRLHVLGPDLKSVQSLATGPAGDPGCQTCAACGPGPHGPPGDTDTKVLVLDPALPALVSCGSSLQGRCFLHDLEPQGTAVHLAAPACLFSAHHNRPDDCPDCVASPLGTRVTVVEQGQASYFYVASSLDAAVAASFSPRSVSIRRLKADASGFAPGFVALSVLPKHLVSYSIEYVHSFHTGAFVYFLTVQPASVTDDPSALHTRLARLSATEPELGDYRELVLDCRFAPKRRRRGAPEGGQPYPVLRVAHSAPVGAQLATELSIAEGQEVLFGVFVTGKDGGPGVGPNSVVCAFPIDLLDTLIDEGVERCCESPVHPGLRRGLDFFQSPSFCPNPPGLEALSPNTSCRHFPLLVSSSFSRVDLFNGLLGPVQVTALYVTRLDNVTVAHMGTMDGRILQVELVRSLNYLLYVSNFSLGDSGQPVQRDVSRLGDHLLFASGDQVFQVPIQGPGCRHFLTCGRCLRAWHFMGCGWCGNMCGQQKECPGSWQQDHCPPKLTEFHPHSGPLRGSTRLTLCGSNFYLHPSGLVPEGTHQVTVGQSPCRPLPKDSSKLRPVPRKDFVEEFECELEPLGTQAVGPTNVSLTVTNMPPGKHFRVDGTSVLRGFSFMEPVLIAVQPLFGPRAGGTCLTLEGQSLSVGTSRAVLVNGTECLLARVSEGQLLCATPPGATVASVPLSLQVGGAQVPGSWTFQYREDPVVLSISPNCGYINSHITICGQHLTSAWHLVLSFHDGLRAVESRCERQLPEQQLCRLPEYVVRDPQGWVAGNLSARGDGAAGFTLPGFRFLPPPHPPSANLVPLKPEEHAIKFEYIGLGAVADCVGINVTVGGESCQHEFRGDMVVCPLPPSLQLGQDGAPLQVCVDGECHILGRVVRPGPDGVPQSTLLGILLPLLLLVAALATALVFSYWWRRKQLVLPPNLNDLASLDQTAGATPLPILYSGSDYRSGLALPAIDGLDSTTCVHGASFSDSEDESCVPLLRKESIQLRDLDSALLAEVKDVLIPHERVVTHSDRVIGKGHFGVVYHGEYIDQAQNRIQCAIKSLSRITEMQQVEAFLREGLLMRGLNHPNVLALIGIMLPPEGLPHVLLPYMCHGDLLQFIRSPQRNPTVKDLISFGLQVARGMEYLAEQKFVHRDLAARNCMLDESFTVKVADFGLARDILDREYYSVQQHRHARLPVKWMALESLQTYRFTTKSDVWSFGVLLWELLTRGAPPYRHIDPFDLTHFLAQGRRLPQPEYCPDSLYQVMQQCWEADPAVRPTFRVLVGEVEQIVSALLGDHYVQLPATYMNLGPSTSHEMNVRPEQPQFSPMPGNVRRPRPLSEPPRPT
T13 sequence (Q8TD08 whole entry): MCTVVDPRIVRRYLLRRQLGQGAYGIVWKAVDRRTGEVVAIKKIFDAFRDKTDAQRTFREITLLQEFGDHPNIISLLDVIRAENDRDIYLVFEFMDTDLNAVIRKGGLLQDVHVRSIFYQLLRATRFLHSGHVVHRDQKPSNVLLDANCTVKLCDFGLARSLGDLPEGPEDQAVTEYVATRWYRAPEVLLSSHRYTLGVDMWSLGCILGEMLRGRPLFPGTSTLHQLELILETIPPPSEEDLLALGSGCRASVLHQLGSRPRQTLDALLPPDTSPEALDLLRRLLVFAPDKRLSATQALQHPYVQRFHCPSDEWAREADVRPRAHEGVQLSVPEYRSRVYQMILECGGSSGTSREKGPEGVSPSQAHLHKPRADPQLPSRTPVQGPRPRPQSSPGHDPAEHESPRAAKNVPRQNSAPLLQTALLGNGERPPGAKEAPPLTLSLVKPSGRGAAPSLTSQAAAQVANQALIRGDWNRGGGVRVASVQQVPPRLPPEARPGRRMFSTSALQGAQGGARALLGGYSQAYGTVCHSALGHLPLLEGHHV
T25 sequence (P42336 whole entry E545A): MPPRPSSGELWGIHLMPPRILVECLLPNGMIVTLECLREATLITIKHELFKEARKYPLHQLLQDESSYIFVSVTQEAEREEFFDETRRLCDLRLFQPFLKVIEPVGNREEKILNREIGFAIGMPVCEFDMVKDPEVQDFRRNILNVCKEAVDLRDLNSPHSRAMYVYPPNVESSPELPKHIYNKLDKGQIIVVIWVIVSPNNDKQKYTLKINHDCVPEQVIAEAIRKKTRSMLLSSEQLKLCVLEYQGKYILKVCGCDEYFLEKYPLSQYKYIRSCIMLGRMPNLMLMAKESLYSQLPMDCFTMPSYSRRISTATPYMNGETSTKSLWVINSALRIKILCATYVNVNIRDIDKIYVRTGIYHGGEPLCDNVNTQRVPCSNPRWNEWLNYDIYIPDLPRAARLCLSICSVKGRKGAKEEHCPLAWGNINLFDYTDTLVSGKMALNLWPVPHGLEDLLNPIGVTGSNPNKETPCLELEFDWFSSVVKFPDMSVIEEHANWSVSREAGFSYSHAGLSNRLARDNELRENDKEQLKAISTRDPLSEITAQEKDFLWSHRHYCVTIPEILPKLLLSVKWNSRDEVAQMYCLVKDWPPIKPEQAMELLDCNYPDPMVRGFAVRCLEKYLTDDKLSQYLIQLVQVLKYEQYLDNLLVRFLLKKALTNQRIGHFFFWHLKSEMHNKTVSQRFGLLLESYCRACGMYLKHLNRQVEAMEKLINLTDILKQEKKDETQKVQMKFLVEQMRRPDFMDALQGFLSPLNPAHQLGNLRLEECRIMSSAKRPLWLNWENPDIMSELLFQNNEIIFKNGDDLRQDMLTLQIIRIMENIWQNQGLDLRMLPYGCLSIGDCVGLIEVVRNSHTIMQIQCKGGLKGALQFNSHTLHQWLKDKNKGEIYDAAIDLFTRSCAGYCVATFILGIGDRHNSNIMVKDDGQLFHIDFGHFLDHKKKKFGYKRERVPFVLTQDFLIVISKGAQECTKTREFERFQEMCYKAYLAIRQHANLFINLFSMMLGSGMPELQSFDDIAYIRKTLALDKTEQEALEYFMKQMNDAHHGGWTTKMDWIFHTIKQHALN
T28 sequence (P07949 29-1114 V804M): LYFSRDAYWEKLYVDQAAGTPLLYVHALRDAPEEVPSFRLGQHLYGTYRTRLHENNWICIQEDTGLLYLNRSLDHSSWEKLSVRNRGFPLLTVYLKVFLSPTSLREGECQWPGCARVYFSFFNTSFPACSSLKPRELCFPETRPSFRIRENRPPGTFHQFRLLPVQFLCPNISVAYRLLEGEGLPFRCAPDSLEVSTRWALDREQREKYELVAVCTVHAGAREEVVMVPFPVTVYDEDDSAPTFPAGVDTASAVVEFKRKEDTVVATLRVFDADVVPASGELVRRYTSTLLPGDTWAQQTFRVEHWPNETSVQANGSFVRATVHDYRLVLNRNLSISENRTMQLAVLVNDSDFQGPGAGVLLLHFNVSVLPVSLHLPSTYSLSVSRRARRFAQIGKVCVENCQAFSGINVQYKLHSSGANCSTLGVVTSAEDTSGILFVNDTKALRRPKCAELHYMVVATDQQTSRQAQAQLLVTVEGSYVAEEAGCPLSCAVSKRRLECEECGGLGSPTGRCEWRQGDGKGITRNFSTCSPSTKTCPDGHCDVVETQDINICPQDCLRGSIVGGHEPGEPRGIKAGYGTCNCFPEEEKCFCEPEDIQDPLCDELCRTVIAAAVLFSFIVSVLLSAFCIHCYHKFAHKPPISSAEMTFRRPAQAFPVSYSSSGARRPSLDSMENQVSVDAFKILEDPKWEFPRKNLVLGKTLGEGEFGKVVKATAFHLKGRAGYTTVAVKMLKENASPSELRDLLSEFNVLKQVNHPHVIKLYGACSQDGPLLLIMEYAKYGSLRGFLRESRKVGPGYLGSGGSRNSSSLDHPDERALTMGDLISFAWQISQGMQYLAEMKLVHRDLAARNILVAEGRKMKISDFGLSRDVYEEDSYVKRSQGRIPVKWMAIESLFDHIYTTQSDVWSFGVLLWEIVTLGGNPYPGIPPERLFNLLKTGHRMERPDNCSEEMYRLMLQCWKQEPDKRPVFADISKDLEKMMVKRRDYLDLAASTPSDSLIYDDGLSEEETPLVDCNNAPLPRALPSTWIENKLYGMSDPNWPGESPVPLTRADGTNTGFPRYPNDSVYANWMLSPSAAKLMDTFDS
T9 sequence (P48730 whole entry): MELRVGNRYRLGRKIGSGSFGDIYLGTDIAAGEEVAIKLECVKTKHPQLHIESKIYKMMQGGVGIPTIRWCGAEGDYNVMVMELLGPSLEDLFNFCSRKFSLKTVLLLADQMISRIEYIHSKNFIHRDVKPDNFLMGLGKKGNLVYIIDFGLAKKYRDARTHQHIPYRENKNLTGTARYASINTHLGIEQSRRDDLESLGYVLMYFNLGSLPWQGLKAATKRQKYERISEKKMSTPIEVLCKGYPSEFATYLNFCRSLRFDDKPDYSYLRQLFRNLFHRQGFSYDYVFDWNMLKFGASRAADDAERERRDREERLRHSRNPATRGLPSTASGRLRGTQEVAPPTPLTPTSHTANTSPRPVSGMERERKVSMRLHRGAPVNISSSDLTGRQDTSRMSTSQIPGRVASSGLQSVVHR
T6 sequence (Q00526 whole entry): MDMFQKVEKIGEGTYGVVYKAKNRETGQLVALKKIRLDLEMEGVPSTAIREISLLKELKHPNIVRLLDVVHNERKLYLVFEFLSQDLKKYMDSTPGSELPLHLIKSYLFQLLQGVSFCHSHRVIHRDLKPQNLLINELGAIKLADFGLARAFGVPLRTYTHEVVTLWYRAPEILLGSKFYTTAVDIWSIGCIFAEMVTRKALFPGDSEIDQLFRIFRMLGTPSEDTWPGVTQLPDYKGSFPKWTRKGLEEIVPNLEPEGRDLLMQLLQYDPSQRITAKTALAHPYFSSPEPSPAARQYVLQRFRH
T31 sequence (Q9UK32 426-683 limits assumed): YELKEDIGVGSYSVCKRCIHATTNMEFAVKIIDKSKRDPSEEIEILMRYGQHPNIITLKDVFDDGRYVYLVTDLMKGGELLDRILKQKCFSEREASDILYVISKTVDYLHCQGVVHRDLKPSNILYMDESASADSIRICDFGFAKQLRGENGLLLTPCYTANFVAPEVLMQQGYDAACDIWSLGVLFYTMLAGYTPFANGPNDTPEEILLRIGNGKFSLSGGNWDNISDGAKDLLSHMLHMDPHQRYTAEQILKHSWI

CCCCN1CCN(C(=N)c2cccc(NC(=O)Nc3ccc(S(=O)(=O)NCc4ccc(S(N)(=O)=O)cc4)cc3)c2)CC1 [SC81458, 4-(3-(3-((4-butylpiperazin-1-yl)(imino)methyl)phenyl)ureido)-N-(4-sulfamoylbenzyl) benzenesulfonamide]
remaining binding at 10 µM [1]: 100%
remaining binding at 10 µM [2]: 77%
remaining binding at 10 µM [3]: 92%
remaining binding at 10 µM [4]: 100%
remaining binding at 10 µM [5]: 73%
remaining binding at 10 µM [6]: 100%
remaining binding at 10 µM [7]: 100%
remaining binding at 10 µM [8]: 100%
remaining binding at 10 µM [9]: 100%
remaining binding at 10 µM [10]: 100%
remaining binding at 10 µM [11]: 100%
remaining binding at 10 µM [12]: 91%
remaining binding at 10 µM [13]: 100%
remaining binding at 10 µM [14]: 100%
remaining binding at 10 µM [15]: 100%
remaining binding at 10 µM [16]: 77%
remaining binding at 10 µM [17]: 100%
remaining binding at 10 µM [18]: 95%
remaining binding at 10 µM [19]: 46%
remaining binding at 10 µM [20]: 100%
remaining binding at 10 µM [21]: 99%
remaining binding at 10 µM [22]: 91%
remaining binding at 10 µM [23]: 100%
remaining binding at 10 µM [24]: 100%
remaining binding at 10 µM [25]: 100%
remaining binding at 10 µM [26]: 84%
remaining binding at 10 µM [27]: 100%
remaining binding at 10 µM [28]: 100%
remaining binding at 10 µM [29]: 75%
remaining binding at 10 µM [30]: 100%
remaining binding at 10 µM [31]: 100%
remaining binding at 10 µM [32]: 100%
remaining binding at 10 µM [33]: 94%
remaining binding at 10 µM [34]: 100%
